Bridge positions count the residues as written; N and C are the ends. Square brackets hold non-standard residues; d marks the D form. Peptide text beside a SMILES is read from it. * marks the point of attachment. Octanoyl = CCCCCCCC(=O)*; Dab = NCC[C@H](N)C(=O)O; Abu = CC[C@H](N)C(=O)O
Experiments:
[1] = Drug level in Sprague-Dawley rat urine at 1 mg/kg, iv; assay type: ADME, organism-based; set-up: dose 1 mg/kg, route intravenous; settings: Sprague-Dawley, urine, read-out: Drug uptake
[2] = system: Acinetobacter baumannii; assay: Antimicrobial activity against Acinetobacter baumannii ATCC 19606 by Etest method in presence of 4 ug/ml NAB741; assay type: functional
[3] = system: Acinetobacter baumannii; assay: Ratio of MIC for Acinetobacter baumannii ATCC 19606 to MIC for Acinetobacter baumannii ATCC 19606 in presence of 4 ug/ml of NAB741; assay type: functional
[4] = system: Klebsiella pneumoniae; assay: Antimicrobial activity against Klebsiella pneumoniae ATCC 13883 by Etest method in presence of 4 ug/ml NAB741; assay type: functional
[5] = system: Escherichia coli; assay: Antimicrobial activity against Escherichia coli IH3080 by Etest method in presence of 4 ug/ml NAB741; assay type: functional
[6] = system: Enterobacter cloacae; assay: Ratio of MIC for Enterobacter cloacae ATCC 23355 to MIC for Enterobacter cloacae ATCC 23355 in presence of 4 ug/ml of NAB741; assay type: functional
[7] = system: Escherichia coli; assay: Antimicrobial activity against Escherichia coli ATCC 25922 by Etest method in presence of 4 ug/ml NAB741; assay type: functional
[8] = system: Enterobacter cloacae; assay: Antimicrobial activity against Enterobacter cloacae ATCC 23355 by Etest method in presence of 4 ug/ml NAB741; assay type: functional
[9] = system: Klebsiella pneumoniae; assay: Ratio of MIC for Klebsiella pneumoniae ATCC 13883 to MIC for Klebsiella pneumoniae ATCC 13883 in presence of 4 ug/ml of NAB741; assay type: functional
[10] = system: Escherichia coli; assay: Ratio of MIC for Escherichia coli IH3080 to MIC for Escherichia coli IH3080 in presence of 4 ug/ml of NAB741; assay type: functional
[11] = system: Escherichia coli; assay: Ratio of MIC for Escherichia coli ATCC 25922 to MIC for Escherichia coli ATCC 25922 in presence of 4 ug/ml of NAB741; assay type: functional

| Compound | dose excreted [1] | MIC [2] | Ratio [3] | MIC [4] | MIC [5] | Ratio [6] | MIC [7] | MIC [8] | Ratio [9] | Ratio [10] | Ratio [11] |
| --- | --- | --- | --- | --- | --- | --- | --- | --- | --- | --- | --- |
| CC[C@H]1OC(=O)[C@H](C)[C@@H](O[C@H]2C[C@@](C)(OC)[C@@H](O)[C@H](C)O2)[C@H](C)[C@@H](O[C@@H]2O[C@H](C)C[C@H](N(C)C)[C@H]2O)[C@](C)(O)C[C@@H](C)CN(C)[C@H](C)[C@@H](O)[C@]1(C)O [AZITHROMYCIN] |  | 1.5 µg/mL | 21 | 0.125 µg/mL | 0.094 µg/mL | 16 | 0.125 µg/mL | 0.25 µg/mL | 11 | 8 | 16 |
| CC(=O)O[C@H]1C[C@@]2(C)[C@@H](C[C@@H](O)[C@H]3[C@@]4(C)CC[C@@H](O)[C@@H](C)[C@@H]4CC[C@@]32C)/C1=C(\CCC=C(C)C)C(=O)O [FUSIDIC ACID] |  | 6 µg/mL | >43 | 48 µg/mL | 2 µg/mL | >130 | 1.5 µg/mL | 2 µg/mL | >5 | >130 | >170 |
| C/C(=C\C(=O)OCCCCCCCCC(=O)O)C[C@@H]1OC[C@H](C[C@@H]2O[C@H]2[C@@H](C)[C@H](C)O)[C@@H](O)[C@H]1O [MUPIROCIN] |  | 512 µg/mL | <2 | 6 µg/mL | 1 µg/mL | 50 | 0.75 µg/mL | 0.25 µg/mL | 8 | 24 | 64 |
| CN[C@H](CC(C)C)C(=O)N[C@H]1C(=O)N[C@@H](CC(N)=O)C(=O)N[C@H]2C(=O)N[C@H]3C(=O)N[C@H](C(=O)N[C@H](C(=O)O)c4cc(O)cc(O)c4-c4cc3ccc4O)[C@H](O)c3ccc(c(Cl)c3)Oc3cc2cc(c3O[C@@H]2O[C@H](CO)[C@@H](O)[C@H](O)[C@H]2O[C@H]2C[C@](C)(N)[C@H](O)[C@H](C)O2)Oc2ccc(cc2Cl)[C@H]1O [VANCOMYCIN] |  | 24 µg/mL | >11 | 128 µg/mL | 16 µg/mL | >170 | 8 µg/mL | 1.5 µg/mL | >2 | >16 | >32 |

Now from value to molecule, other results behind:

| dose excreted [1] | Compound | MIC [2] | Ratio [3] | MIC [4] | MIC [5] | Ratio [6] | MIC [7] | MIC [8] | Ratio [9] | Ratio [10] | Ratio [11] |
| --- | --- | --- | --- | --- | --- | --- | --- | --- | --- | --- | --- |
| 7.16% | CCCCCCCC(=O)N[C@H](C(=O)N[C@@H](CC)C(=O)N[C@H]1CCNC(=O)[C@H]([C@@H](C)O)NC(=O)[C@H](CCN)NC(=O)[C@H](CCN)NC(=O)[C@H](CC(C)C)NC(=O)[C@@H](Cc2ccccc2)NC(=O)[C@H](CCN)NC1=O)[C@@H](C)O (Octanoyl-T[Abu][Dab][Dab][dF]L[Dab][Dab]T; lactam 3-C) |  |  |  |  |  |  |  |  |  |  |
| 19.4% | CCCCCCCC(=O)N[C@H](C(=O)N[C@H](CO)C(=O)N[C@H]1CCNC(=O)[C@H]([C@@H](C)O)NC(=O)[C@H](CCN)NC(=O)[C@H](CCN)NC(=O)[C@H](CC(C)C)NC(=O)[C@@H](Cc2ccccc2)NC(=O)[C@H](CCN)NC1=O)[C@@H](C)O (Octanoyl-T[dS][Dab][Dab][dF]L[Dab][Dab]T; lactam 3-C) |  |  |  |  |  |  |  |  |  |  |

Source: ChEMBL document CHEMBL1629695, “A novel polymyxin derivative that lacks the fatty acid tail and carries only three positive charges has strong synergism with agents excluded by the intact outer membrane” (Antimicrob Agents Chemother, 2010)
